# US20240368135A1 (VERTEX PHARMACEUTICALS INCORPORATED, priority 2021, published 2024)
# pIC50: −log10 of the molar value. Like-named read-outs stand apart in the source and are kept apart here.
# Target: human NaV 1.8 (Homo sapiens, UniProt Q9Y5Y9)
# Assay: E-VIPR assay detecting and measuring NaV inhibition properties
# Type: cell-based
# Conditions: HEK cells expressing truncated human NaV 1.8
# Procedure, shortened: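 HEK cells expressing truncated, fully active human NaV1.8, with KIR2.1 BacMam co-transduction, were loaded with CC2-DMPE/DiSBAC6(3) voltage-sensing dyes for 20 min at room temperature. Compounds were tested in 11-point 3-fold dilutions (300 nM top final), optionally with 25% human serum, under electrical stimulation with FRET read-out.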
# [1] = no human serum, read-out: IC50 in the E-VIPR Assay
# human NaV 1.8, sequence (Q9Y5Y9 126-399 limits assumed): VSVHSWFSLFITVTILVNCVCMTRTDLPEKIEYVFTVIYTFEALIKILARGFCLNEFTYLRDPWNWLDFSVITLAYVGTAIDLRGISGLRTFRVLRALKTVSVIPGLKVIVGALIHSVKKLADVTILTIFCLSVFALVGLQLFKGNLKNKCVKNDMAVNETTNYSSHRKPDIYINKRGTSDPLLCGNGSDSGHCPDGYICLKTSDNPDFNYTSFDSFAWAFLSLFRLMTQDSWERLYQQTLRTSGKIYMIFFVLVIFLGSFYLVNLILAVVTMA
# human NaV 1.8, sequence (Q9Y5Y9 660-890 limits assumed): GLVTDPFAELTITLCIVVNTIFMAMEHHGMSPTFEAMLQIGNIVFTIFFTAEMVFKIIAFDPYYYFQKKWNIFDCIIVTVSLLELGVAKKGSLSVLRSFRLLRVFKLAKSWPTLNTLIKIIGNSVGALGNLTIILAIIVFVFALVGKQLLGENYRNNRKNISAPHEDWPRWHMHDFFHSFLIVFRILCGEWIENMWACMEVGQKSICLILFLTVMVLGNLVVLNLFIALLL
# human NaV 1.8, sequence (Q9Y5Y9 1148-1722 limits assumed): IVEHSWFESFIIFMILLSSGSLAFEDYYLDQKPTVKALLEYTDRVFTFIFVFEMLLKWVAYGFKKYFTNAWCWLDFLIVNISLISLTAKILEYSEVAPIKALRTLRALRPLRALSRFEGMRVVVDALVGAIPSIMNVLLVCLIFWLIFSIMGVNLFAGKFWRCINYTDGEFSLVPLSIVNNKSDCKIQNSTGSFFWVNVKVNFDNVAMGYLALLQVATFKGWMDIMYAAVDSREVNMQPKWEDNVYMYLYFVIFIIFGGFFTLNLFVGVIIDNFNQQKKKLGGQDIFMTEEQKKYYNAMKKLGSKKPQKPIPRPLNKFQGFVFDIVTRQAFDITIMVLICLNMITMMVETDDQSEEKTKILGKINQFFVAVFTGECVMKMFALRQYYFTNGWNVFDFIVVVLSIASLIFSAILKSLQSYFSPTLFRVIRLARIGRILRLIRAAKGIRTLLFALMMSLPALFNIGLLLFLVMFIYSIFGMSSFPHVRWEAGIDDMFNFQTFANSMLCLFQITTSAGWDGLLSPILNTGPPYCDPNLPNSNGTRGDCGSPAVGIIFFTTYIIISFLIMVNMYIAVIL
"pIC50 (in the presence of human serum (compound numbers followed by *), read-out: IC50 in the E-VIPR Assay, performed in the presence of human serum)",pIC50 [1],Compound
7.00 to 8.00,–,"COc1c([C@@H]2C[C@](C)(C(F)(F)F)O[C@H]2C(=O)Nc2ccnc([C@H](O)[C@@H](C)O)c2)ccc(F)c1F (stereo in doubt) [Compound 699, rel-(2R,3S,5R)-3-(3,4-difluoro-2-methoxyphenyl)-N-(2-((1S,2R)-1,2-dihydroxypropyl)pyridin-4-yl)-5-methyl-5-(trifluoromethyl)tetrahydrofuran-2-carboxamide]"
–,> 8.00,"CCOc1c([C@H]2[C@H](C(=O)Nc3ccn4nnnc4c3)O[C@@](C)(C(F)(F)F)[C@H]2C)ccc(F)c1C (stereo in doubt) [Compound 121, rac-(2R,3S,4S,5R)-3-(2-ethoxy-4-fluoro-3-methylphenyl)-4,5-dimethyl-N-(tetrazolo[1,5-a]pyridin-7-yl)-5-(trifluoromethyl)tetrahydrofuran-2-carboxamide]"
–,> 8.00,"COc1c([C@H]2[C@H](C(=O)Nc3ncco3)O[C@@](C)(C(F)(F)F)[C@H]2C)ccc(F)c1F [Compound 196, (2R,3S,4S,5R)-3-(3,4-difluoro-2-methoxyphenyl)-4,5-dimethyl-N-(oxazol-2-yl)-5-(trifluoromethyl)tetrahydrofuran-2-carboxamide]"
–,7.00 to 8.00,"COc1c([C@@H]2C[C@](C)(C(F)(F)F)O[C@H]2C(=O)Nc2ccnc([C@@H](O)CO)c2)ccc(F)c1C (single isomer, unassigned) [Compound 706]"
–,7.00 to 8.00,"[2H]C([2H])([2H])Oc1c([C@H]2[C@H](C(=O)Nc3ccnc(N4CCNCC4=O)c3)O[C@@](C)(C(F)(F)F)[C@H]2C)ccc(F)c1F [Compound 515, (2R,3S,4S,5R)-3-[3,4-difluoro-2-(trideuteriomethoxy)phenyl]-4,5-dimethyl-N-[2-(2-oxopiperazin-1-yl)-4-pyridyl]-5-(trifluoromethyl)tetrahydrofuran-2-carboxamide]"
–,> 8.00,"COc1c(C2C(C(=O)Nc3ccncn3)OC(C)(C(F)(F)F)C2C)ccc(F)c1F (single isomer, unassigned) [Compound 36, 3-(3,4-difluoro-2-methoxy-phenyl)-4,5-dimethyl-N-pyrimidin-4-yl-5-(trifluoromethyl)tetrahydrofuran-2-carboxamide]"
–,7.00 to 8.00,"CNS(=O)(=O)c1ccc(NC(=O)[C@@H]2O[C@@](C)(C(F)(F)F)[C@@H](C)[C@H]2c2ccc(F)c(F)c2OC)cn1 [Compound 236, (2R,3S,4S,5R)-3-(3,4-difluoro-2-methoxy-phenyl)-4,5-dimethyl-N-[6-(methylsulfamoyl)-3-pyridyl]-5-(trifluoromethyl)tetrahydrofuran-2-carboxamide]"
–,> 8.00,"COc1c([C@H]2[C@H](C(=O)Nc3ccc(C(N)=O)nc3)O[C@@](C)(C(F)(F)F)[C@H]2C)ccc(F)c1C(F)F (stereo in doubt) [Compound 168, rel-5-((2R,3S,4S,5R)-3-(3-(difluoromethyl)-4-fluoro-2-methoxyphenyl)-4,5-dimethyl-5-(trifluoromethyl)tetrahydrofuran-2-carboxamido)picolinamide]"
–,> 8.00,"COCCNCc1cc(NC(=O)C2OC(C)(C(F)(F)F)C(C)C2c2ccc(F)c(F)c2OC)ccn1 (stereo not shown) [Compound 60, 3-(3,4-difluoro-2-methoxy-phenyl)-N-[2-[(2-methoxyethylamino)methyl]-4-pyridyl]-4,5-dimethyl-5-(trifluoromethyl)tetrahydrofuran-2-carboxamide]"
–,6.00 to 7.00,"Cc1nn(C(F)F)cc1NC(=O)[C@@H]1O[C@@](C)(C(F)(F)F)[C@@H](C)[C@H]1c1ccc(F)c(F)c1CN1CC(O)C1 (racemic) [Compound 673, rac-(2R,3S,4S,5R)-3-(3,4-difluoro-2-((3-hydroxyazetidin-1-yl)methyl)phenyl)-N-(1-(difluoromethyl)-3-methyl-1H-pyrazol-4-yl)-4,5-dimethyl-5-(trifluoromethyl)tetrahydrofuran-2-carboxamide]"
–,> 8.00,"Cc1nocc1NC(=O)[C@@H]1O[C@@](C)(C(F)(F)F)[C@@H](C)[C@H]1c1ccc(F)c(F)c1OCCN1CC(F)C1 [Compound 625, (2R,3S,4S,5R)-3-(3,4-difluoro-2-(2-(3-fluoroazetidin-1-yl)ethoxy)phenyl)-4,5-dimethyl-N-(3-methylisoxazol-4-yl)-5-(trifluoromethyl)tetrahydrofuran-2-carboxamide]"
–,> 8.00,"C=Cc1c([C@H]2[C@H](C(=O)Nc3cn(C(F)F)nc3C)O[C@@](C)(C(F)(F)F)[C@H]2C)ccc(F)c1F [Compound 676, (2R,3S,4S,5R)-3-(3,4-difluoro-2-vinylphenyl)-N-(1-(difluoromethyl)-3-methyl-1H-pyrazol-4-yl)-4,5-dimethyl-5-(trifluoromethyl)tetrahydrofuran-2-carboxamide]"
–,7.00 to 8.00,"COc1c([C@H]2[C@H](C(=O)Nc3ccc(NC(C)=O)nc3)O[C@@](C)(C(F)(F)F)[C@H]2C)ccc(F)c1F [Compound 525, (2R,3S,4S,5R)-N-(6-acetamido-3-pyridyl)-3-(3,4-difluoro-2-methoxy-phenyl)-4,5-dimethyl-5-(trifluoromethyl)tetrahydrofuran-2-carboxamide]"
–,7.00 to 8.00,"COc1c([C@H]2[C@H](C(=O)Nc3ccnc(NC(=O)CN(C)C)c3)O[C@@](C)(C(F)(F)F)[C@H]2C)ccc(F)c1F [Compound 472, (2R,3S,4S,5R)-3-(3,4-difluoro-2-methoxyphenyl)-N-(2-(2-(dimethylamino)acetamido)pyridin-4-yl)-4,5-dimethyl-5-(trifluoromethyl)tetrahydrofuran-2-carboxamide]"
–,≤ 6.00,"CC1C(c2ccc(F)c(F)c2OCCO)C(C(=O)Nc2ncn(C3CC(F)C3)n2)OC1(C)C(F)(F)F [Compound 554, (2R,3S,4S,5R)-3-(3,4-difluoro-2-(2-hydroxyethoxy)phenyl)-N-(1-((15,3S)-3-fluorocyclobutyl)-1H-1,2,4-triazol-3-yl)-4,5-dimethyl-5-(trifluoromethyl)tetrahydrofuran-2-carboxamide]"
–,≤ 6.00,"C[C@H]1[C@@H](c2ccc(F)c(F)c2OCCO)[C@H](C(=O)Nc2cc(C3CC3)n(C)n2)O[C@@]1(C)C(F)(F)F [Compound 546, (2R,3S,4S,5R)-N-(5-cyclopropyl-1-methyl-1H-pyrazol-3-yl)-3-(3,4-difluoro-2-(2-hydroxyethoxy)phenyl)-4,5-dimethyl-5-(trifluoromethyl)tetrahydrofuran-2-carboxamide]"
–,> 8.00,"C[C@H]1[C@@H](c2ccc(F)c(F)c2OC(F)F)[C@H](C(=O)Nc2ccnc(CO)c2)O[C@@]1(C)C(F)(F)F (single isomer, unassigned) [Compound 92]"
–,> 8.00,"COc1c([C@H]2[C@H](C(=O)Nc3ccnc(C(O)C(F)F)c3)O[C@@](C)(C(F)(F)F)[C@H]2C)ccc(F)c1F (single isomer, unassigned) [Compound 254, rel-(2R*,3S*,4S*,5R*)-N-(2-(2,2-difluoro-1-hydroxyethyl)pyridin-4-yl)-3-(3,4-difluoro-2-methoxyphenyl)-4,5-dimethyl-5-(trifluoromethyl)tetrahydrofuran-2-carboxamide]"
–,> 8.00,"[2H]C([2H])([2H])Oc1c([C@H]2[C@H](C(=O)Nc3ccnc(N4CCN(C)CC4=O)c3)O[C@@](C)(C(F)(F)F)[C@H]2C)ccc(F)c1F [Compound 518, (2R,3S,4S,5R)-3-(3,4-difluoro-2-(methoxy-d3)phenyl)-4,5-dimethyl-N-(2-(4-methyl-2-oxopiperazin-1-yl)pyridin-4-yl)-5-(trifluoromethyl)tetrahydrofuran-2-carboxamide]"
